This passage reports EC50 results from patent US10160729B2, “Hsp70 modulators and methods for making and using the same” (Memorial Sloan Kettering Cancer Center, priority 2014, dated 2018).

Some results are limits rather than exact numbers.

The experiment has as its system MOLM-13 cells. Kind of experiment: Caspase cleavage assay (Caspase3, 7 activation). The class given is cell-based. Conditions: Homo sapiens, 16 h treatment, caspase substrate Z-DEVD-R110, read-out: c* Concentration at which 50% of the maximum signal was achieved (caspase activation). The procedure:
Caspase3, 7 Activation. MOLM-13 cells (30,000 cells/well) were plated in black 96-well plates (Corning Cat. #3603) in 40 μL of RPMI media, and left in an incubator (37° C., 5% CO2) for up to 24 h. Cells were treated for 16 h with compounds or DMSO (control) at desired concentrations in 50 μL of media. Drugs were added in triplicate wells. Following exposure of cells to Hsp70 inhibitors, 50 μL of buffer containing 10 mM HEPES (pH 7.5), 2 mM EDTA, 0.1% CHAPS and the caspase substrate Z-DEVD-R110 at 25 μM was added to each well. Plates were incubated until the signal stabilized and then the fluorescence signal of each well was measured in an Analyst GT microplate reader. The percentage increase in apoptotic cells was calculated by comparison of the fluorescence reading obtained from treated versus control cells.
Regarding `C#CCCCCN1CCN(c2ncc(Sc3ccc(C(N)=O)cc3)c(OCc3cccc(N(C)C)c3)n2)CC1` [185e, 4-((4-((3-(Dimethylamino)benzyl)oxy)-2-(4-(hex-5-yn-1-yl)piperazin-1-yl)pyrimidin-5-yl)thio)benzamide], the EC50 is less than 200 nM. To `COc1cccc(COc2nc(N3CCOCC3)ncc2Sc2ccc(C(N)=O)cc2)c1` [190a, 4-((4-((3-Methoxybenzyl)oxy)-2-morpholinopyrimidin-5-yl)thio)benzamide] belongs 200 to 400 nM. The figure for `COc1cccc(COc2nc(N3CCN(C(C)C)CC3)ncc2Sc2ccc(C(N)=O)cc2)c1` [190b, 4-((2-(4-Isopropylpiperazin-1-yl)-4-((3-methoxybenzyl)oxy)pyrimidin-5-yl)thio)benzamide] is 200 to 400 nM.

As to `COc1cccc(COc2nc(N3CC[C@@H](N(C)C)C3)ncc2Sc2ccc(C(N)=O)cc2)c1` [190e, (R)-4-((2-(3-(dimethylamino)pyrrolidin-1-yl)-4-((3-methoxybenzyl)oxy)pyrimidin-5-yl)thio)benzamide], the EC50 was less than 200 nM.

In the case of `COc1cccc(COc2nc(N(C)CCN(C)C)ncc2Sc2ccc(C(N)=O)cc2)c1` [190g, 4-((2-((2-(Dimethylamino)ethyl)(methyl)amino)-4-((3-methoxybenzyl)oxy)pyrimidin-5-yl)thio)benzamide], the EC50 is not below 1200 nM. Consider `COc1cccc(COc2nc(N3CCCN(C)CC3)ncc2Sc2ccc(C(N)=O)cc2)c1` [190h], for which the EC50 was not below 1200 nM. To `C#CCCCCN1CCN(c2ncc(Sc3ccc(C(N)=O)cc3)c(OCc3cccc(OC)c3)n2)CC1` [190j, 4-((2-(4-(Hex-5-yn-1-yl)piperazin-1-yl)-4-((3-methoxybenzyl)oxy)pyrimidin-5-yl)thio)benzamide] belongs less than 200 nM; to `C#CCCCN1CCN(c2ncc(Sc3ccc(C(N)=O)cc3)c(OCc3cccc(OC)c3)n2)CC1` [190k, 4-((4-((3-Methoxybenzyl)oxy)-2-(4-(pent-4-yn-1-yl)piperazin-1-yl)pyrimidin-5-yl)thio)benzamide], less than 200 nM. Regarding `COc1cccc(COc2nc(N3CC(N(C)C)C3)ncc2Sc2ccc(C(N)=O)cc2)c1` [190m, 4-((2-(3-(Dimethylamino)azetidin-1-yl)-4-((3-methoxybenzyl)oxy)pyrimidin-5-yl)thio)benzamide], the EC50 is less than 200 nM.

On to `C#CC(C)N1CCN(c2ncc(Sc3ccc(C(N)=O)cc3)c(OCc3cccc(OC)c3)n2)CC1` (stereo not shown) [190n, 4-((2-(4-(But-3-yn-2-yl)piperazin-1-yl)-4-((3-methoxybenzyl)oxy)pyrimidin-5-yl)thio)benzamide], for which the EC50 lay in the range of 200 to 400 nM. The figure for `C=CCN1CCN(c2ncc(Sc3ccc(C(N)=O)cc3)c(OCc3cccc(OC)c3)n2)CC1` [190o, 4-((2-(4-Allylpiperazin-1-yl)-4-((3-methoxybenzyl)oxy)pyrimidin-5-yl)thio)benzamide] is less than 200 nM.

On to `COc1cccc(COc2nc(N3CCN(C4CC4)CC3)ncc2Sc2ccc(C(N)=O)cc2)c1` [190p, 4-((2-(4-Cyclopropylpiperazin-1-yl)-4-((3-methoxybenzyl)oxy)pyrimidin-5-yl)thio) benzamide], for which the EC50 is less than 200 nM. The figure for `COc1cccc(COc2nc(N3CCN(CC4CC4)CC3)ncc2Sc2ccc(C(N)=O)cc2)c1` [190q, 4-((2-(4-(Cyclopropylmethyl)piperazin-1-yl)-4-((3-methoxybenzyl)oxy)pyrimidin-5-yl)thio)benzamide] is less than 200 nM. For `COc1cccc(COc2nc(N3CCN(C4COC4)CC3)ncc2Sc2ccc(C(N)=O)cc2)c1` [190r, 4-((4-((3-Methoxybenzyl)oxy)-2-(4-(oxetan-3-yl)piperazin-1-yl)pyrimidin-5-yl)thio)benzamide], the EC50 is 200 to 400 nM.

In the case of `COc1cccc(COc2nc(N3CCN(C)C(=O)C3)ncc2Sc2ccc(C(N)=O)cc2)c1` [190t, 4-((4-((3-Methoxybenzyl)oxy)-2-(4-methyl-3-oxopiperazin-1-yl)pyrimidin-5-yl)thio) benzamide], the EC50 is less than 200 nM. The figure for `COc1cccc(COc2nc(N3CCN(Cc4ccco4)CC3)ncc2Sc2ccc(C(N)=O)cc2)c1` [190u, 4-((2-(4-(Furan-2-ylmethyl)piperazin-1-yl)-4-((3-methoxybenzyl)oxy)pyrimidin-5-yl)thio)benzamide] is less than 200 nM; for `COc1cccc(COc2nc(N3CCN(Cc4nccs4)CC3)ncc2Sc2ccc(C(N)=O)cc2)c1` [190v, 4-((4-((3-Methoxybenzyl)oxy)-2-(4-(thiazol-2-ylmethyl)piperazin-1-yl)pyrimidin-5-yl)thio)benzamide] it is less than 200 nM; for `CN1CCN(c2ncc(Sc3ccc(N)cc3)c(OCc3ccccc3)n2)CC1` [compound 10, 4-(4-(Benzyloxy)-2-(4-methylpiperazin-1-yl)pyrimidin-5-ylthio)aniline] it is 400 to 1000 nM. In the case of `COc1ccc(Sc2cnc(N3CCN(C)CC3)nc2OCc2ccccc2)cc1N` [compound 11, 5-((4-(Benzyloxy)-2-(4-methylpiperazin-1-yl)pyrimidin-5-yl)thio)-2-methoxyaniline], the EC50 was 200 to 400 nM. `CN1CCN(c2ncc(Sc3cccnc3N)c(OCc3ccccc3)n2)CC1` [compound 13, 3-((4-(Benzyloxy)-2-(4-methylpiperazin-1-yl)pyrimidin-5-yl)thio)pyridin-2-amine]: the EC50 is 400 to 1000 nM. To `CN1CCN(c2ncc(Sc3ccc(C=O)o3)c(OCc3ccccc3)n2)CC1` [compound 29, 5-((4-(Benzyloxy)-2-(4-methylpiperazin-1-yl)pyrimidin-5-yl)thio)furan-2-carbaldehyde] belongs 400 to 1000 nM; to `CC(=O)c1ccc(Sc2cnc(N3CCN(C)CC3)nc2OCc2ccccc2)s1` [compound 30, 1-(5-((4-(Benzyloxy)-2-(4-methylpiperazin-1-yl)pyrimidin-5-yl)thio)thiophen-2-yl)ethanone], 400 to 1000 nM. To `CC(=O)c1ccc(Sc2cnc(N3CCN(C)CC3)nc2OCc2ccccc2)cc1` [compound 36, 1-(4-((4-(Benzyloxy)-2-(4-methylpiperazin-1-yl)pyrimidin-5-yl)thio)phenyl)ethanone] belongs 1000 to 1200 nM; to `CN1CCN(c2ncc(Sc3ccc(O)cc3)c(OCc3ccccc3)n2)CC1` [compound 37, 4-((4-(Benzyloxy)-2-(4-methylpiperazin-1-yl)pyrimidin-5-yl)thio)phenol], 400 to 1000 nM. The figure for `CN1CCN(c2ncc(Sc3cccc(C=O)c3)c(OCc3ccccc3)n2)CC1` [compound 43, 3-((4-(Benzyloxy)-2-(4-methylpiperazin-1-yl)pyrimidin-5-yl)thio)benzaldehyde] is 400 to 1000 nM; for `CN1CCN(c2ncc(Sc3ccc(C#N)cc3)c(OCc3ccccc3)n2)CC1` [compound 44, 4-((4-(Benzyloxy)-2-(4-methylpiperazin-1-yl)pyrimidin-5-yl)thio)benzonitrile] it is 400 to 1000 nM; for `CN1CCN(c2ncc(Sc3ccc(C=O)cc3)c(OCc3ccccc3)n2)CC1` [compound 45, 4-((4-(Benzyloxy)-2-(4-methylpiperazin-1-yl)pyrimidin-5-yl)thio)benzaldehyde] it is 200 to 400 nM.

For the compound `CN1CCN(c2ncc(Sc3cccc(C#N)c3)c(OCc3ccccc3)n2)CC1` [compound 47, 3-((4-(Benzyloxy)-2-(4-methylpiperazin-1-yl)pyrimidin-5-yl)thio)benzonitrile], the EC50 was 400 to 1000 nM. To `COC(=O)c1ccc(Sc2cnc(N3CCN(C)CC3)nc2OCc2ccccc2)cc1` [compound 49, Methyl 4-((4-(benzyloxy)-2-(4-methylpiperazin-1-yl)pyrimidin-5-yl)thio)benzoate] belongs 200 to 400 nM.

For `C=CC(=O)Nc1ccc(Sc2cnc(N3CCN(C)CC3)nc2OCc2ccccc2)cn1` [compound 56, N-(5-((4-(Benzyloxy)-2-(4-methylpiperazin-1-yl)pyrimidin-5-yl)thio)pyridin-2-yl)acrylamide], the EC50 was not below 1200 nM. To `CN1CCN(c2ncc(Sc3ccc(NC(=O)CN)cc3)c(OCc3ccccc3)n2)CC1` [compound 58, 2-Amino-N-(4-((4-(benzyloxy)-2-(4-methylpiperazin-1-yl)pyrimidin-5-yl)thio)phenyl)acetamide] belongs 400 to 1000 nM; to `COc1ccc(Sc2cnc(N3CCN(C)CC3)nc2OCc2ccccc2)c(N)c1` [compound 62, 2-((4-(Benzyloxy)-2-(4-methylpiperazin-1-yl)pyrimidin-5-yl)thio)-5-methoxyaniline], 400 to 1000 nM; to `COc1ncc(Sc2cnc(N3CCN(C)CC3)nc2OCc2ccccc2)cc1N` [compound 63, 5-((4-(Benzyloxy)-2-(4-methylpiperazin-1-yl)pyrimidin-5-yl)thio)-2-methoxypyridin-3-amine], not below 1200 nM. The figure for `CC(Oc1ccc(Sc2cnc(N3CCN(C)CC3)nc2OCc2ccccc2)cc1)C(N)=O` (stereo not shown) [compound 65, 2-(4-((4-(Benzyloxy)-2-(4-methylpiperazin-1-yl)pyrimidin-5-yl)thio)phenoxy)propanamide] is 400 to 1000 nM.

As to `CN1CCN(c2ncc(Sc3ccc(C(N)=O)cc3)c(OCc3ccccc3)n2)CC1` [compound 66, 4-((4-(Benzyloxy)-2-(4-methylpiperazin-1-yl)pyrimidin-5-yl)thio)benzamide], the EC50 was in the range of 200 to 400 nM. Consider `CN1CCN(c2ncc(Sc3cccc(C(N)=O)c3)c(OCc3ccccc3)n2)CC1` [compound 67, 3-((4-(Benzyloxy)-2-(4-methylpiperazin-1-yl)pyrimidin-5-yl)thio)benzamide], for which the EC50 fell in the range of 200 to 400 nM.

As to `CN1CCN(c2ncc(Sc3ccc(F)c(C(N)=O)c3)c(OCc3ccccc3)n2)CC1` [compound 68, 5-((4-(Benzyloxy)-2-(4-methylpiperazin-1-yl)pyrimidin-5-yl)thio)-2-fluorobenzamide], the EC50 fell in the range of 1000 to 1200 nM.
